Experimental data taken from ChEMBL document CHEMBL1201862, “PubChem BioAssay data set” (2004).
The source made the active and inactive calls.

Assays:
[1] = target: Melanin-concentrating hormone receptor 1 (Homo sapiens, UniProt Q99705); experiment: Late-stage fluorescence-based counterscreen for antagonists of the G-protein coupled receptor 7 (GPR7): cell-based dose response assay to identify antagonists of the melanin-concentrating hormone receptor 1 (MCHR1). [Related pubchem assays (depositor defined):AID1861, AID1880, AID1952, AID2148, AID2251, AID2257, AID485339]; assay type: functional;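 also: stimulated with 30 nM MCH peptide agonist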
Chain of Melanin-concentrating hormone receptor 1 (Q99705 whole entry): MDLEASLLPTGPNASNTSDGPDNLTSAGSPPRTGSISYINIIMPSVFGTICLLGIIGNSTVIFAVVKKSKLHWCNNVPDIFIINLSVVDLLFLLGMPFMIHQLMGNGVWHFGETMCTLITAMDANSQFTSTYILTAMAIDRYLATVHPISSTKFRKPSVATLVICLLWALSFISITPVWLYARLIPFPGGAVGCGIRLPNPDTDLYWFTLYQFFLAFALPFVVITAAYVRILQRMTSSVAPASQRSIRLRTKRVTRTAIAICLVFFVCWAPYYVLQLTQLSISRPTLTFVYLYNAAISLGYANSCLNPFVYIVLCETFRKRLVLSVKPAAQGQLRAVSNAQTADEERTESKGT

HEK293 = experiment: Fluorescence-based counterscreen for potentiators or agonists of NPY-Y2: cell-based high-throughput dose response assay to identify inhibitors of cyclic nucleotide gated ion channel (CNGC) activity. In this assay, the parental HEK293 cell line transfected with a cyclic-nucleotide gated ion channel (CNGC)-based cAMP sensor is used to measure inhibition of isoproterenol-induced CNGC activity by test compound.; assay type: functional; details: Homo sapiens;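 also: stimulus is 1 µM isoproterenol at EC100 plus PDE inhibitor Ro 20-1724 at 25 µM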
[2] = target: T1, Neuropeptide Y receptor type 1 (Homo sapiens, UniProt P25929); experiment: Fluorescence-based counterscreen for agonists of NPY-Y2: cell-based high-throughput dose response assay for agonists of NPY-Y1.; assay type: functional
T1 sequence (P25929 whole entry): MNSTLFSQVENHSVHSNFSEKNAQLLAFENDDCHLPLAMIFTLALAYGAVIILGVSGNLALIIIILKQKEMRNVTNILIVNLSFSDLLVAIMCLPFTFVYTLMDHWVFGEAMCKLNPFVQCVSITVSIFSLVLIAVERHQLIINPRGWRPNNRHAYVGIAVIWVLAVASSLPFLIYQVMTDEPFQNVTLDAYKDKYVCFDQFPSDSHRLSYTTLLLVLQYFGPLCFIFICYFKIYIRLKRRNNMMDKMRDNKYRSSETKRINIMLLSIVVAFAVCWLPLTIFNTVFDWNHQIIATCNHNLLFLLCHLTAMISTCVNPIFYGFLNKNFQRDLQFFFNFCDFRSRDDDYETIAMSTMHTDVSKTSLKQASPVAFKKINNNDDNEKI

[3] = target: T2, Neuropeptide Y receptor type 2 (Homo sapiens, UniProt P49146); experiment: Fluorescence-based cell-based high-throughput dose response assay for agonists of NPY-Y2. [Related pubchem assays: 1703 (Screening assay (CNGC inhibitors).), 1359 (Screening assay (NPY-Y2 potentiators or agonists).), 1304 (Screening assay (NPY-Y1 potentiators or agonists).), 1710 (Screening assay (NPY-Y2 agonists).), 1791 (Summary AID.)]; assay type: functional
T2 sequence (P49146 whole entry): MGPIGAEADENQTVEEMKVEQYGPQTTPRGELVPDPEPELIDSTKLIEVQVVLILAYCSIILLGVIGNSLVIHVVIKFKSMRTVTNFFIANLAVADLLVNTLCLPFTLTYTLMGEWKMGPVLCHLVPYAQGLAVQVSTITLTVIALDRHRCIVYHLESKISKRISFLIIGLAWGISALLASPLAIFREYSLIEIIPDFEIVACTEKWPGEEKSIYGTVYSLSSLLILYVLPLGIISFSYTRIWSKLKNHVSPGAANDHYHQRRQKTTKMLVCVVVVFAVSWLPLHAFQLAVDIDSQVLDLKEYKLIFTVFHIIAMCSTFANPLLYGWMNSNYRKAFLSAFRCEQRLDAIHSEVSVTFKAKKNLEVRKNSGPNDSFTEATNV

[4] = target: Lysosomal acid glucosylceramidase (Homo sapiens, UniProt P04062); experiment: Dose response cell-based high throughput screening assay to identify enhancers of beta-glucosidase activity. [Related pubchem assays: 784 ]; assay type: functional
Chain of Lysosomal acid glucosylceramidase (P04062 whole entry): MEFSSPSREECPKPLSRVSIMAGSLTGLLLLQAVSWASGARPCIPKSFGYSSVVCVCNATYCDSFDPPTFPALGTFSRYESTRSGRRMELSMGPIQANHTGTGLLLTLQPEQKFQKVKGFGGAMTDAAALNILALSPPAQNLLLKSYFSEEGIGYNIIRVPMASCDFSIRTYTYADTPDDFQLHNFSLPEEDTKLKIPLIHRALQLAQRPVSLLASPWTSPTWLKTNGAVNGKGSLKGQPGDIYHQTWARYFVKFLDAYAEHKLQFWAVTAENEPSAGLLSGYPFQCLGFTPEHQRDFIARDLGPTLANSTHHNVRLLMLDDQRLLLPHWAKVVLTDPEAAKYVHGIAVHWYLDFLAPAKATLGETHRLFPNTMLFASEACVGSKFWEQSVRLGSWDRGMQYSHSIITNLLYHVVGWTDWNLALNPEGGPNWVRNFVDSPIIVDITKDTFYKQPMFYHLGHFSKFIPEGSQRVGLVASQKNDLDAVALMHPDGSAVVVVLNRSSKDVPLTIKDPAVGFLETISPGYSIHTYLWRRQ

Cytochrome P450 3A4 = Cytochrome P450 3A4 (Homo sapiens, UniProt P08684); details: Potency;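 also: confirmatory qHTS run detecting inhibitors and substrates of CYP3A4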
Chain of Cytochrome P450 3A4 (P08684 whole entry): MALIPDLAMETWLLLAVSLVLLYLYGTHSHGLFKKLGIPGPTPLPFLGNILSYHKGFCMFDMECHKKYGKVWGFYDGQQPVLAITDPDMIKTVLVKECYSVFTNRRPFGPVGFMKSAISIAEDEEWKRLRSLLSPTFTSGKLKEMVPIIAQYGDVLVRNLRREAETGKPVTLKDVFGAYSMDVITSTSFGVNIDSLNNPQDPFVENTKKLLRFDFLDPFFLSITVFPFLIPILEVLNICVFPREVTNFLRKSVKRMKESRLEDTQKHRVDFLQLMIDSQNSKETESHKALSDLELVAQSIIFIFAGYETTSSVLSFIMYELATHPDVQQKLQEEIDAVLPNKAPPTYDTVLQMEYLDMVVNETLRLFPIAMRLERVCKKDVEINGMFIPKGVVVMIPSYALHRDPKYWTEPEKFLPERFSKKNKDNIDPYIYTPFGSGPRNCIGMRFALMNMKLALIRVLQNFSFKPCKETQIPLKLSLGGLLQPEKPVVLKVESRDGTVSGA

cells = assay type: functional
[5] = target: Acyl-homoserine lactone acylase PvdQ (Pseudomonas aeruginosa (strain LESB58), UniProt Q9I194); experiment: P. aeruginosa PvdQ acylase inhibitors, dose response, biochemical, fluorescence, plate reader and imaging, cherry-picks (AID 493231)
Chain of Acyl-homoserine lactone acylase PvdQ (Q9I194 24-193 limits assumed): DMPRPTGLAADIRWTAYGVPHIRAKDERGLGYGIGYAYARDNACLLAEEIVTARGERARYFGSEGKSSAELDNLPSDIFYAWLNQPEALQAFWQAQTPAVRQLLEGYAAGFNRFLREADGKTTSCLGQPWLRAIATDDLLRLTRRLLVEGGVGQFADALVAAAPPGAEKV
Chain of Acyl-homoserine lactone acylase PvdQ (Q9I194 217-762 limits assumed): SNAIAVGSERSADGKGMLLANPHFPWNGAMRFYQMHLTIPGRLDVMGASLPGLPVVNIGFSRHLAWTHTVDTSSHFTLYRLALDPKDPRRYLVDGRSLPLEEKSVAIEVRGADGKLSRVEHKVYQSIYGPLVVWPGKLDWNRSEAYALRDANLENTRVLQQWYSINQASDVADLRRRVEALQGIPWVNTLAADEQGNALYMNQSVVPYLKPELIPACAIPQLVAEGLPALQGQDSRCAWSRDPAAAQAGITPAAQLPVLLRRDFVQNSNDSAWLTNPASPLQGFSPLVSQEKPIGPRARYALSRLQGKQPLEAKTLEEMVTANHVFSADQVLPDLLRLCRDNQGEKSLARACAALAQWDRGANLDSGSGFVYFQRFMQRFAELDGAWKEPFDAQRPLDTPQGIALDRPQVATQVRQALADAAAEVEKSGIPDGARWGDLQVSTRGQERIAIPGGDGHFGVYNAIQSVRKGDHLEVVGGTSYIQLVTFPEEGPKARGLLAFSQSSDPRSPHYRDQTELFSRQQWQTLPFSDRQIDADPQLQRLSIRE

Bcl-2-like protein 10 = Bcl-2-like protein 10 (Homo sapiens, UniProt Q9HD36); experiment: displacers of TR3 peptide from Bcl-B, primary screen, selectivity assay for Bfl-1 inhibitor project, biochemical, fluorescence polarization, FITC-TR3 peptide (AID 748);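 also: fluorescence polarization from a fluorescein-labelled TR3 peptide binding purified Bcl-B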
Chain of Bcl-2-like protein 10 (Q9HD36 whole entry): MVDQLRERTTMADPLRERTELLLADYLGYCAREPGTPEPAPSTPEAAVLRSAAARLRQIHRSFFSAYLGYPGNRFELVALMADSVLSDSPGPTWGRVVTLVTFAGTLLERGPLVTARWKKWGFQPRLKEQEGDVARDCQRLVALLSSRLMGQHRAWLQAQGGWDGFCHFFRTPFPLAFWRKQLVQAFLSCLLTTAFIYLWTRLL

[6] = target: T3, Eukaryotic translation initiation factor 2-alpha kinase 3 (Homo sapiens, UniProt Q9NZJ5); experiment: Dose response cell-based high-throughput screening assay to measure PERK inhibition. [Related pubchem assays: 1416 ]; assay type: functional
T3 sequence (Q9NZJ5 whole entry): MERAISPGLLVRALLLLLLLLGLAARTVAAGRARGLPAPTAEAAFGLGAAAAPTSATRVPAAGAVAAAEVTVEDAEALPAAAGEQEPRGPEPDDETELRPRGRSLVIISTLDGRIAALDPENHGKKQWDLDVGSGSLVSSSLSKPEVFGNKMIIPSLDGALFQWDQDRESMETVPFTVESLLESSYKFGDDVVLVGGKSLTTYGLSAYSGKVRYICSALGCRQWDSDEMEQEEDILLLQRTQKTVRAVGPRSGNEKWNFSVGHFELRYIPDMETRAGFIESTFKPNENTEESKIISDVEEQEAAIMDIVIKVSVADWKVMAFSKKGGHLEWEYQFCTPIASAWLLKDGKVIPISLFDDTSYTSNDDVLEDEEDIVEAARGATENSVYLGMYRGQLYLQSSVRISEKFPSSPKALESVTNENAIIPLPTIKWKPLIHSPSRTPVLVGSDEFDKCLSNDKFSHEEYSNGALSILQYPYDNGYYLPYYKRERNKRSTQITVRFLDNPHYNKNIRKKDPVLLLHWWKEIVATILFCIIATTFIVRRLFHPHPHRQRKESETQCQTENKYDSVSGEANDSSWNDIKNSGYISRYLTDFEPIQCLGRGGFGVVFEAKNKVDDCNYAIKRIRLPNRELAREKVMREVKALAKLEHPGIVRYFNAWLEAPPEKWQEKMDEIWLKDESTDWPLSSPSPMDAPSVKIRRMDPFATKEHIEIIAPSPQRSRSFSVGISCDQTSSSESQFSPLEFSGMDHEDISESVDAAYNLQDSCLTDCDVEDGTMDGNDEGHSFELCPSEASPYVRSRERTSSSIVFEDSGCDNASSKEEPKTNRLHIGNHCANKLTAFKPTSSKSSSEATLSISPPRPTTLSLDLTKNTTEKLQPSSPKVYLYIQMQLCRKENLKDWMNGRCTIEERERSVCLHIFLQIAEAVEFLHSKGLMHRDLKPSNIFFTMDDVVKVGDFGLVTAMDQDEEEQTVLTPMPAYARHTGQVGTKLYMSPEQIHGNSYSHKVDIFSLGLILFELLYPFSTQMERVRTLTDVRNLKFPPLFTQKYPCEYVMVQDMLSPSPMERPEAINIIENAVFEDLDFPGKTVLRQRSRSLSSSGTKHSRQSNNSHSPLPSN

[7] = target: T3, Eukaryotic translation initiation factor 2-alpha kinase 3; experiment: Counterscreen assay for PERK inhibitors: Dose response cell-based high throughput screening assay to measure inhibition of PERK at 6 hours. [Related pubchem assays: 1522, 1416 ]; assay type: functional

With `COc1ccc(Oc2c(Cl)cnn(-c3cccc(C(C)C)c3)c2=O)cc1` the IC50 [1] was 1.7 µM (active).
With `Cc1ccccc1OCC(O)CN1CCC(C)CC1` (stereo not drawn) the EC50 (HEK293) was 4.67 µM (active), the EC50 [2] was 21.8 µM (not active) and the EC50 [3] was 33.3 µM (not active).
In the case of `COCc1nnc(NC(=O)c2ccc(S(=O)(=O)N(C)C3CCCCC3)cc2)o1`, the EC50 [4] is reported as > 10 µM (not active).
For `COc1ccc(Oc2c(Cl)cnn(-c3ccc(C)cc3)c2=O)cc1OC`, the IC50 [1] was 8.2 µM (active).
For `CN(Cc1ccccc1)C(=O)CCNC(=O)Cn1cnc2ccccc2c1=O`, the EC50 (HEK293) was > 35.4 µM (not active), the EC50 [2] was > 35.4 µM (not active) and the EC50 [3] was > 35.4 µM (not active).
With `CCC(C(=O)O)C1CCC(C)C(C(C)C(O)C(C)C(=O)C(CC)C2OC3(C=CC(O)[C@@]4(CC[C@](C)(C5CC[C@@](O)(CC)C(C)O5)O4)O3)C(C)CC2C)O1` (stereo partly drawn) the AC50 (Cytochrome P450 3A4) was 39.8 µM (inconclusive).
In the case of `CCOC(=O)c1c(C)n(C)c2ccc(OC(C)C(=O)OC)cc12` (stereo not drawn), the IC50 (cells) is reported as 20.9 µM (active) and the EC50 [4] is reported as > 10 µM (not active).
For `O=C(NC1CCCC1)c1cccc(Cl)c1`, the AC50 [5] was 3.13 µM (active).
With `O=C(OCc1nc2ccccc2s1)c1ccco1` the AC50 [5] was 30.3 µM (active).
In the case of `COC(=O)[C@@H]1C[C@@]2(O)[C@H](O)[C@H](O)[C@H](O)C[C@H]2N1Cc1cc(OC)cc(OC)c1`, the AC50 (Cytochrome P450 3A4) is reported as 15.8 µM (inconclusive).
For `Cc1csc2nc(CNS(=O)(=O)N(C)C)cn12`, the IC50 (Bcl-2-like protein 10) was > 100 µM (inactive).
For `Cc1cnc(O)c([N+](=O)[O-])c1`, the EC50 [6] was > 55.7 µM (not active) and the EC50 [7] was > 55.7 µM (not active).
